Results: US20250276994A1, “CAP ANALOG FOR THE 5'-END OF EUKARYOTIC MESSENGER RNAS” (WESTFÄLISCHE WILHELMS-UNIVERSITÄT, priority 2021, published 2025)

Biological target: T1, T7 RNA polymerase (Escherichia phage T7, UniProt P00573)
T1 construct: purchased Thermo Scientific
Test: In vitro transcription of GLuc mRNA with cap analogs, gel analysis
Assay type: biochemical
Description: First, the DNA sequence coding for eGFP, Firefly luciferase (FLuc) or Gaussia luciferase (GLuc) mRNAs were amplified from pmRNA-vectors containing the respective sequence. After purification (NucleoSpin Gel and PCR Clean-up, Macherey-Nagel), the resulting linear dsDNA was used as template (200 ng) for in vitro T7 transcription performed in transcription buffer (40 mM Tris/HCl, 25 mM NaCl, 8 mM MgCl2, 2 mM spermidine(HCl)3) by adding either a A/C/UTP (0.5 mM) mix or a mix with modified nucleotides (A/m^5C/N^1-methylpseudo-UTP) (0.5 mM), GTP (0.25 mM), GpppG, m7GpppG, ApppG, DMNB or NPOM cap analog (1 mM), T7 RNA polymerase (50 U) (Thermo Scientific) and pyrophosphatase (0.1 U) (Thermo Scientific) for 4 h at 37° C. Remaining DNA template was digested in presence of 2 U DNase I for 1 h at 37° C. and then mRNAs were purified using the RNA Clean & Concentrator™-5 Kit (Zymo Research). To digest non-capped RNAs, 10 U of the RNA 5′-polyphosphatase (Epicentre) as well as the supplied reaction buffer were added to purified mRNAs. After an incubation period of 30 min at 37° C., 0.5 U of the 5′-3′ exoribonuclease XRN1 (NEB) and MgCl2 (5 mM) were added. The reaction mixture was incubated for 60 min at 37° C. Subsequently, capped mRNAs were purified using the RNA Clean & Concentrator™-5 Kit (Zymo Research).
The photocleavable 5′-cap analogs of formulas (12) and (18) were used for in vitro transcription of GLuc mRNA as described above and analysed via agarose gel electrophoresis.
“M” denotes Riboruler low range RNA ladder.

T1 sequence (P00573 whole entry): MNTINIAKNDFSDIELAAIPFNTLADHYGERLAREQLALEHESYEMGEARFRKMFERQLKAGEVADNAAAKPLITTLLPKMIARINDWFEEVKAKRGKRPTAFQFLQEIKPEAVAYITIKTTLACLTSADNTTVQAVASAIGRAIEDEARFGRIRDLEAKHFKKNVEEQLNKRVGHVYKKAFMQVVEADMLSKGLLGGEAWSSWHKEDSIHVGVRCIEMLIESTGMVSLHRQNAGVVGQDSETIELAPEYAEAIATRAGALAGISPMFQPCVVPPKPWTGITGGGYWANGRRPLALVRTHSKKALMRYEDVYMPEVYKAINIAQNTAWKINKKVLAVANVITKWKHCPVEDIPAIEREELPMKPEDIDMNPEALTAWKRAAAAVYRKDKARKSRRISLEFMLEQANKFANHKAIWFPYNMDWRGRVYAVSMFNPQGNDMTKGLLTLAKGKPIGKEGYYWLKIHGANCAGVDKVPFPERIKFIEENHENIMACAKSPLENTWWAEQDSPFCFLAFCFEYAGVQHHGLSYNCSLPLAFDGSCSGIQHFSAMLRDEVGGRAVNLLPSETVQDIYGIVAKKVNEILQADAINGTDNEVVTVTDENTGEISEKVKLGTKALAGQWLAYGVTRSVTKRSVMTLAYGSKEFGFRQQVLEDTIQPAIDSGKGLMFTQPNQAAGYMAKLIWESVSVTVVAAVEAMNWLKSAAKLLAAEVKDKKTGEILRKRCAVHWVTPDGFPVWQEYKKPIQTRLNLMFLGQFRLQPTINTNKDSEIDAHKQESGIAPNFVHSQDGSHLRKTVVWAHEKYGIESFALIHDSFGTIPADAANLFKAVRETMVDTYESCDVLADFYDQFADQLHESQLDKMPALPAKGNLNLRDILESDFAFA

`COc1cc(COC(=O)Nc2nc3c(c(=O)[nH]2)[n+](C)cn3[C@@H]2O[C@H](COP(=O)(O)CP(=O)(O)OP(=O)(O)OC[C@H]3O[C@@H](n4cnc5c(=O)[nH]c(N)nc54)C(O)C3O)C(O)C2O)c([N+](=O)[O-])cc1OC` (stereo partly shown) [compound 12, P1-(N^2-(4,5-Dimethoxy-2-nitrobenzyl)oxycarbonyl-7-methylguanosin-5′-yl)-P3-guanosin-5′-yl 1,2-methylenetriphosphate] was tested. Which “incorporation of cap analog into RNA” value did it give?
Its value is “incorporated into the RNA”.
